This note sets out measurements from PubChem BioAssay AID1421 (Emory University Molecular Libraries Screening Center, 2008).

SMILES strings stand for the structures. Calls of active or inactive are those of the source. No rule for the calls is given here.

The test addresses Prostaglandin E2 receptor EP2 subtype (Homo sapiens) (UniProt P43116). Description: EP2 receptor modulators, dose response, cell-based, human EP2, PGE2 EC50 shift (AID 1421). The conditions noted are these: EP2-expressing cells, PGE2 EC50 shift by compound; for PGE2 EC50 with compound: measured here: PGE2 EC50 at 6.7 uM compound.

Prostaglandin E2 receptor EP2 subtype (Homo sapiens), sequence (P43116 whole entry, looked up): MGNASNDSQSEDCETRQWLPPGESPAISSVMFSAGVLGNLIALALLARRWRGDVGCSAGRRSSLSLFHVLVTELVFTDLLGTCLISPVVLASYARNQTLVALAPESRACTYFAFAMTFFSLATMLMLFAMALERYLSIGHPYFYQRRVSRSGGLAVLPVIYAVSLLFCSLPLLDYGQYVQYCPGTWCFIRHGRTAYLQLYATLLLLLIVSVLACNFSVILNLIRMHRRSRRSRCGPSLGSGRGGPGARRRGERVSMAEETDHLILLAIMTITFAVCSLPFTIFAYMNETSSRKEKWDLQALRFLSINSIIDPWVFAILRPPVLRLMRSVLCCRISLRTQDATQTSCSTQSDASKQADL

Consider `CCOC(=O)c1ccccc1NC1c2ccccc2C(=O)N1c1cc(C)ccn1` (stereo not drawn), for which the PGE2 EC50 with compound came out at 1.13 nM.
As to `CC(C)CCn1c(=O)c2ccccc2c2ccccc2c1=O`, the outcome was active and the PGE2 EC50 with compound was 1.07 nM.
In the same order, the values of `CCn1c2c(c3cc(OCC(C)C)ccc31)CCCC2=O` are “active” and 1.09 nM.
Take `CC1(C)Cc2nc3nc(SCC(=O)Nc4ccccc4)nc(N)c3cc2CO1`: the PGE2 EC50 with compound stood at 1.4 nM.
For the compound `CC(C)n1c2ccccc2c2nnc(SCC(=O)Nc3ccccc3C(=O)O)nc21`, the PGE2 EC50 with compound turned out to be 2.65 nM.
In the case of `CCOC(=O)c1sc2nc3c(SCC(=O)O)cc(C(=O)c4cc(F)ccc4O)cn3c(=O)c2c1C`, the PGE2 EC50 with compound was 0.6 nM.
As for `CCC(=O)N(CCC(Cc1ccccc1)c1ccco1)Cc1ccco1` (stereo not drawn), the result was active and the PGE2 EC50 with compound was found to be 0.86 nM.
In the case of `CCOC(=O)c1sc2nc(C)nc(N3CCN(c4ncccn4)CC3)c2c1C`, the PGE2 EC50 with compound was found to be 0.62 nM.
As to `CCOc1nc2cccc(C(=O)OC(C)OC(=O)OC3CCCCC3)c2n1Cc1ccc(-c2ccccc2-c2nn[nH]n2)cc1` (stereo not drawn), the PGE2 EC50 with compound stood at 1.42 nM.
The same measure, in the same setting: as for `CCCOP(=O)(OCCC)c1nc(-c2ccccc2)oc1NCc1ccccc1`, the figure is 1.01 nM; as for `NCCc1c(-c2ccccc2)n(-c2ccccc2)c2ccccc12`, 1.25 nM.
Same read-out and setting: under `CCCCNc1nc2c(S(=O)(=O)c3ccccc3)nnn2c2ccccc12` stands 1.17 nM; under `COc1ccc2c(C)cc(SCC(=O)Nc3ncc(Cl)cc3Cl)nc2c1`, 1.52 nM.
The same measure, in the same setting: as for `CCCOP(=O)(OCCC)C(Nc1cccc(C(F)(F)F)c1)c1ccc(C)cc1` (stereo not drawn), the figure is 1.37 nM; as for `Cc1cccc(C)c1NC(=O)CSc1nnc(Cn2nnc(-c3ccccc3)n2)n1-c1ccccc1`, 0.65 nM.
Regarding `Cc1ccc(-c2nc3ccccc3nc2Cl)cc1`, the PGE2 EC50 with compound came out at 0.49 nM.
Still for that read-out and setting: as for `CCOP(=O)(OCC)c1nc(/C=C/c2ccccc2)oc1NCc1ccccc1`, the figure is 1.27 nM; as for `O=c1c2c(nc3n1CCCCC3)-c1ccccc1CC21CCCCC1`, 1.25 nM.
The same measure, in the same setting: as for `CSc1nc(-c2ccc(Cl)cc2)nn1S(=O)(=O)c1ccccc1`, the figure is 1.03 nM; as for `Cc1ccsc1-c1n[nH]c(=S)n1C1CCCCC1`, 1.2 nM.
For `Cc1cc(C)n(-c2nc3ccccc3nc2Nc2ccc3[nH]c(=O)[nH]c3c2)n1`, the outcome was active and the PGE2 EC50 with compound worked out at 0.83 nM.
Take `S=c1[nH]nc(-c2ccc3ccccc3n2)n1Cc1ccccc1`: the PGE2 EC50 with compound came out at 0.91 nM.
For the compound `CC(C)NC(=S)N/N=C1\CCCCC1C1CCCCC1` (stereo not drawn), the PGE2 EC50 with compound was found to be 1.34 nM.
For `Cc1ccc(OCc2n[nH]c(=S)n2Cc2ccccc2)cc1`, the PGE2 EC50 with compound amounted to 1.17 nM.
On the same count and under the same terms, under `Cc1ccccc1NC(=O)/C(=C/c1ccccc1)c1ccccc1` stands 1.23 nM; under `CCOC(=O)CSc1ncnc2c1sc1nc(N3CCOCC3)c3c(c12)CCCC3`, 0.32 nM.
As for `C=CCC(=O)OCCCCCCOc1ccc(C(=O)O)cc1`, the PGE2 EC50 with compound was found to be 0.58 nM.
On the same count and under the same terms, as for `Cc1ccc(C(=O)c2cnc3ccccc3c2-c2ccccc2)cc1`, the figure is 0.64 nM.
For `O=c1c2ccccc2c(-c2ccc(Br)cc2)nn1Cc1ccccc1`, the PGE2 EC50 with compound came to 0.78 nM.
Regarding `CCc1cc(-c2[nH]ncc2-c2ccc3c(c2)OCO3)c(O)cc1O`, the PGE2 EC50 with compound was 1.31 nM.
On the same count and under the same terms, as for `CSc1nc2nccc(-c3ccc(-c4ccccc4)cc3)n2n1`, the figure is 0.87 nM.
In the case of `C/C(=N\O)C(=O)OC1CC(C)CCC1C(C)C` (stereo not drawn), the outcome was active and the PGE2 EC50 with compound turned out to be 0.88 nM.
With `CCOC(=O)C1=C(C)N(C)C(C)=C(C(=O)OCC)C1c1ccccc1`, the PGE2 EC50 with compound is 0.97 nM.
Regarding `O=C(/C=C/Nc1ccccc1Oc1ccccc1)c1ccco1`, the PGE2 EC50 with compound was 2.67 nM.
On the same count and under the same terms, as for `Cn1c(=O)c2c(nc(SCC(=O)N3CCc4ccccc4C3)n2C)n(C)c1=O`, the figure is 1.51 nM; as for `CCCn1cnc2sc(CC)cc2c1=O`, 1.25 nM; as for `Cc1ccc(-c2cc3nn(-c4ccccc4)c(N)c3c(=O)o2)cc1`, 1.87 nM.
Same read-out and setting: under `Nc1ccc(Cl)cc1C(=O)c1ccccc1Cl` stands 1.16 nM.
Same read-out and setting: as for `CSc1nnc(CSCc2ccc(Cl)cc2Cl)n1-c1ccccc1`, the figure is 2.63 nM; as for `Cc1cccc(OC(=O)c2sc(Cl)nc2C)c1`, 0.83 nM; as for `CCc1c(-c2n[nH]c(=S)n2Cc2ccccc2)csc1C`, 1.22 nM.
In the case of `O=C(O)c1cc2cc(F)ccc2[nH]1`, the PGE2 EC50 with compound is 0.93 nM.
Take `CC12CCC(C(=O)N(CSC(=S)N/N=C\c3ccccc3Cl)C1=O)C2(C)C` (stereo not drawn): the result was active and the PGE2 EC50 with compound is 1.7 nM.
Regarding `C=C1CCC2C(CC2(C)C)C(=C)CC/C1=N/O` (stereo not drawn), the PGE2 EC50 with compound amounted to 1.61 nM.
Same read-out and setting: under `CCOC(=O)c1cnc2c(c(C)nn2C)c1Oc1ccc(Cl)cc1` stands 1.29 nM; under `COc1ccc2ccc(=O)oc2c1CC=C(C)C`, 1.13 nM.
As to `O=c1c2ccccc2c(-c2ccccc2)nn1Cc1c(Cl)cccc1Cl`, the PGE2 EC50 with compound turned out to be 0.84 nM.
Same read-out and setting: under `CCCCOP(=O)(OCCCC)C(Nc1ccccc1)c1ccc2c(c1)OCO2` (stereo not drawn) stands 0.8 nM; under `CC(C)Oc1ccc(Cc2n[nH]c(=S)n2Cc2ccccc2)cc1Cl`, 1.25 nM.
As for `CCCCCn1c(CN2CCN(c3cc(Cl)ccc3C)CC2)nc2c1c(=O)[nH]c(=O)n2C`, the PGE2 EC50 with compound is 1.25 nM.
Same read-out and setting: as for `O=C(CSc1ncnc2c1oc1ccccc12)Nc1cccc(F)c1`, the figure is 3.15 nM; as for `C1=C(c2ccccc2)Nc2ccccc2N=C1c1ccccc1`, 2.46 nM; as for `Nc1nc(Cc2ccccc2)nc(Cc2ccccc2)c1-c1ccccc1`, 0.79 nM.
In the case of `COc1ccccc1NC(=O)CSc1nnc(Cn2nnc(-c3ccccc3)n2)n1-c1ccccc1`, the PGE2 EC50 with compound was 0.55 nM.
Take `C[C@@H]1CC[C@H]2C(C)(C)C3CC12CC[C@@]3(C)O` (stereo partly drawn): the PGE2 EC50 with compound came to 0.32 nM.
On to `COc1cc(NC(=S)NC(=O)c2cc(C)cc(C)c2)ccc1NC(=O)c1cccs1`, for which the PGE2 EC50 with compound was 2.54 nM.
As to `Clc1ccc(COn2c(-c3ccccc3)nc3ccccc32)cc1`, the result was active and the PGE2 EC50 with compound was 2.65 nM.
Regarding `Cc1ccccc1/C=C/c1nc2ccccc2c(=O)n1CCc1ccccc1`, the PGE2 EC50 with compound turned out to be 1.38 nM.
For the compound `COc1ccccc1-c1nnc2sc(-c3cc4ccccc4o3)nn12`, the PGE2 EC50 with compound amounted to 6.03 nM.
Still for that read-out and setting: as for `CCOC(=O)c1c(N)nn(C(=O)C(C)(C)C)c1-c1ccccc1`, the figure is 0.96 nM.
For `Cc1ccc(NC2=C(C(=O)c3ccccc3)N(C)S(=O)(=O)c3ccccc32)cc1`, the outcome was active and the PGE2 EC50 with compound worked out at 1.28 nM.
With `O=C(Nc1ccccc1Cl)N1CCSc2ccccc21`, the result was active and the PGE2 EC50 with compound was found to be 1.55 nM.
On to `c1ccc(-c2ccccc2-c2nc(-c3cccnc3)no2)cc1`, for which the PGE2 EC50 with compound came out at 2.82 nM.
Same read-out and setting: under `O=C(/C(=C/O)N=Nc1ccccc1)c1ccc(Cl)cc1` stands 1.12 nM.
Still for that read-out and setting: as for `O=C(O)c1cccc(NN=C2c3ccccc3-c3ccccc32)c1`, the figure is 0.8 nM; as for `CCOC(=O)c1ccccc1NC(=O)C(C)Oc1ccccc1` (stereo not drawn), 1.35 nM.
Same read-out and setting: under `CCOc1ccccc1Cn1c(=O)sc2ccccc21` stands 2.65 nM.
In the case of `COc1ccc(-c2nc(NC(C)=O)sc2-c2ccccc2)cc1`, the outcome was active and the PGE2 EC50 with compound is 1.01 nM.
For `COC(=O)c1c(NC(=O)CSc2nnc(-c3ccco3)n2Cc2ccccc2)sc(C)c1C`, the PGE2 EC50 with compound stood at 0.85 nM.
Still for that read-out and setting: under `O=C(O)c1ccc(-c2ccccc2Cl)o1` stands 1.44 nM; under `Cc1ccccc1-c1n[nH]c(=S)n1/N=C/c1ccc(-c2ccccc2Br)o1`, 2.42 nM.
As for `Clc1ccc(-c2nc3ccccn3c2CN2CCCCC2)cc1`, the PGE2 EC50 with compound was found to be 1.26 nM.
With `CCOC(=O)C1=NN(c2cccc(C)c2)C2(S1)SC(C(C)=O)=C(C)N2c1ccccc1` (stereo not drawn), the PGE2 EC50 with compound was 0.31 nM.
On the same count and under the same terms, as for `Cc1cc(NC(=O)Cn2nnc3sc4c(c3c2=O)CCC(C(C)(C)C)C4)no1` (stereo not drawn), the figure is 0.98 nM.
As for `CC(C)CNC(=O)C(=O)NNC(=O)c1ccco1`, the PGE2 EC50 with compound is 2.49 nM.
Take `CCSc1ccccc1C(=O)Nc1ccc([N+](=O)[O-])cc1OC`: the PGE2 EC50 with compound turned out to be 1.06 nM.
Regarding `CN1CCCN(C(=O)Cc2c(Cl)cccc2Cl)c2nc3ccccc3nc21`, the outcome was active and the PGE2 EC50 with compound turned out to be 0.9 nM.
With `N#CCCSc1ncnc2c1oc1ccccc12`, the PGE2 EC50 with compound came out at 1.52 nM.
For `CCOC(=O)C(CC)Sc1ncnc2c1nnn2-c1ccc(F)cc1` (stereo not drawn), the PGE2 EC50 with compound came out at 0.33 nM.
As to `O=C(O)COc1cccc(NC(=O)c2ccccc2)c1`, the PGE2 EC50 with compound was 2.83 nM.
Still for that read-out and setting: as for `FC(F)(F)c1nc(=S)c2ccccc2[nH]1`, the figure is 2.84 nM.
With `CCOC(=O)c1c(CC(C)C)csc1/N=C/C1C(=O)CCCC1=O`, the PGE2 EC50 with compound stood at 1 nM.
For the compound `Cc1ccc(N=N/C(=C\O)C(=O)c2ccc(Cl)cc2)cc1`, the PGE2 EC50 with compound amounted to 0.87 nM.
As to `O=C(Nc1ccccc1-c1nc2ccccc2s1)c1ccc(Br)o1`, the PGE2 EC50 with compound stood at 1.02 nM.
On the same count and under the same terms, as for `c1ccc(Nc2nc(N3CCNCC3)nc(N3CCOCC3)n2)cc1`, the figure is 1.46 nM; as for `O=C(CNCc1ccccc1Cl)Nc1ccccc1N1CCCCC1`, 0.64 nM; as for `COc1c2c(cc3occ(-c4ccc5c(c4)OCO5)c(=O)c13)OC(C)(C)C=C2`, 1.07 nM.
The same measure, in the same setting: as for `CCOC(=O)CCN(Cc1sccc1C)S(=O)(=O)c1ccc(F)cc1`, the figure is 1.15 nM.
Turning to `CCSc1cc(N2CCOCC2)nc(-c2ccccc2)n1`, the result was active and the PGE2 EC50 with compound amounted to 1.02 nM.
Consider `CCOC(=O)c1c(NC(=O)CN(CC)CC)sc2c1CCN(C(=O)OCC)C2`, for which the PGE2 EC50 with compound worked out at 1.34 nM.
On the same count and under the same terms, under `Cc1cc(C)c(N=C2CCCN2Cc2ccccc2)c(C#N)c1` stands 1.39 nM.
